Experiment [1] concerns regeneration of mouse back hair. As to the kind of experiment: Test of inhibiting regeneration of mouse back hair. Conditions: applied twice a day 100 μl/time to shaved back, C3H mice, vs solvent control. The experiment is classed as in vivo. On the procedure:
Back hair of a group of 5 C3H mice aged 6 weeks was shaved over 2×4 cm^2 by means of an electric hair clipper and an electric shaver so as not to damage their skins. Each subject was applied to the shaved sites twice a day in an amount of 100 μl/time over 4 weeks. Only the solvent was applied to a control group. After 3 weeks, a photograph of each shaved site was taken at a fixed magnification for observing the state of regenerated hair to compare a regenerated hair area ratio (regenerated hair area/shaved area) of the test group with that of the control group.

The target of another experiment is T1, neutral endopeptidase (Homo sapiens, UniProt P08473).
T1 construct: suspended in a 0.1% Triton X-100/0.2 M Tris-HCl buffer (pH: 8.0) and ultrasonically disrupted to use as an enzyme solution; host or cells: normal human fibroblasts, Triton X-100 lysate
As to the kind of experiment: Neutral endopeptidase activity-inhibiting test in cultured human fibroblast. The experiment is classed as biochemical. To be noted: human fibroblast enzyme solution, substrate glutaryl-Ala-Ala-Phe-4-methoxy-2-naphthylamine, read-out: Percent inhibition of neutral endopeptidase activity (%). From the text:
Normal human fibroblasts commercially available from Dainippon Pharmaceutical Co., Ltd. were subcultured in a DMEM containing a 10% fetal bovine serum and used in this test. The cells separated from a Petri dish with a rubber policeman were suspended in phosphate-buffered physiological saline, collected by means of a low-speed centrifugal separator and washed 3 times with phosphate-buffered physiological saline. The thus-treated cells were suspended in a 0.1% Triton X-100/0.2 M Tris-HCl buffer (pH: 8.0) and ultrasonically disrupted to use as an enzyme solution.
The enzyme solution (2 μl), a solution (1 μl) of each subject compound and 20 mM glutaryl-Ala-Ala-Phe-4-methoxy-2-naphthylamine as a substrate for the measurement of enzyme activity were added to 100 μl of an MES buffer solution (100 mM, pH: 6.5), to which sodium chloride (300 mM) had been added, to conduct a reaction at 37° C. for 1 hour. The reaction was stopped by adding phosphoramidone so as to give a final concentration of 0.4 μM. Aminopeptidase M was added to the reaction mixture so as to give a final concentration of 20 mU, thereby conducting a reaction at 37° C. for 15 minutes. The amount of 4-methoxy-2-naphthylamine formed was determined by measuring a fluorescence intensity at an excitation wavelength of 340 nm and a fluorescence wavelength of 425 nm by means of a fluorescence spectrophotometer, thereby finding percent inhibition of neutral endopeptidase activity by the subject compound.

The subject of another experiment is elastase. In words: Elastase activity-inhibiting test in cultured human fibroblast. Type of experiment: biochemical. Conditions: human fibroblast enzyme solution, substrate N-succinyl-(Ala)3-p-nitroanilide, 37° C. 1 hour. From the text: Normal human fibroblasts commercially available from Dainippon Pharmaceutical Co., Ltd. were subcultured in a DMEM containing a 10% fetal bovine serum and used in this test. The cells separated from a Petri dish with a rubber policeman were suspended in physiological saline, collected by means of a low-speed centrifugal separator and washed 3 times with physiological saline. The thus-treated cells were suspended in a 0.1% Triton X-100/0.2 M Tris-HCl buffer (pH: 8.0) and ultrasonically disrupted to use as an enzyme solution.
125 mM N-Succinyl-(Ala)3-p-nitroanilide was used as a substrate for the measurement of enzyme activity, and each subject (1 μl; its concentration is shown in Table 1) was added to the enzyme solution (100 μl) to conduct a reaction at 37° C. for 1 hour. The reaction was stopped by adding acetic acid (5 μl). The amount of nitroaniline formed was determined by measuring an absorbance at 405 nm by means of a spectrophotometer.

T1 sequence (P08473 whole entry): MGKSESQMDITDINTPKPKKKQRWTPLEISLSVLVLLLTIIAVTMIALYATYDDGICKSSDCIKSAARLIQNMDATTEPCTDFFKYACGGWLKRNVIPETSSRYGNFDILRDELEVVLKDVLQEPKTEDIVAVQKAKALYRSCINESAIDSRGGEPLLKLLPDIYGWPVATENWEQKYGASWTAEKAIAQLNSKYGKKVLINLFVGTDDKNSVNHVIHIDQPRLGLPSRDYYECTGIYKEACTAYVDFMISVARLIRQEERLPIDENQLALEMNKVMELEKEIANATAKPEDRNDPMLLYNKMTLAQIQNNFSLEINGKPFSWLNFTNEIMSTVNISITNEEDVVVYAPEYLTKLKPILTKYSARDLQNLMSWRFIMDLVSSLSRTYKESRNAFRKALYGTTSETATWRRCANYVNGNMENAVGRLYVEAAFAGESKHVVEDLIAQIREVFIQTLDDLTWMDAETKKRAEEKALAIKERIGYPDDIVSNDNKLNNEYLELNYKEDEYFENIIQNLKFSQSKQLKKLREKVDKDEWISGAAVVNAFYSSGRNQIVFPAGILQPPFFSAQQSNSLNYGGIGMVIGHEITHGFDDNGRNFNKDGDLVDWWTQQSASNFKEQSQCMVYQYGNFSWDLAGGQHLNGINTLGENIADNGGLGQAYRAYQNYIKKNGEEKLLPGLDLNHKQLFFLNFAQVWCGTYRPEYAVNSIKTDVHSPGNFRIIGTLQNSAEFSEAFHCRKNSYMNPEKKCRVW

Take `CC(C)CC(NP(=O)(O)OC1OC(C)C(O)C(O)C1O)C(=O)NC(Cc1c[nH]c2ccccc12)C(=O)O` (stereo not shown) [Compound 1]: in experiment [1] (1 mM in 80% ethanol), the “Percent inhibition of hair growth after 3 weeks from shaving (%)” value (shortened to “Percent inhibition of hair growth … (%)”) came out at 58.7%. The inhibition at 10 µM on neutral endopeptidase is 99%. Also, the “Percent inhibition of elastase activity (%)” value in the experiment on elastase (0.1 mM) turned out to be 85.6%.

Consider `CC(C)CC(NP(=O)(O)CCc1ccccc1)C(=O)NC(Cc1c[nH]c2ccccc12)C(=O)O` (stereo not shown) [Compound 2], for which, in experiment [1] (1 mM in 80% ethanol), the “Percent inhibition of hair growth … (%)” value is reported as 59.1%. For the same molecule, the inhibition at 10 µM at neutral endopeptidase is 98.8%. Besides, the “Percent inhibition of elastase activity (%)” value with elastase (0.1 mM) amounted to 82.1%.

In the case of `CC(C)CC(NC(=O)C(CC(C)C)NP(=O)(O)CCc1ccccc1)C(=O)O` (stereo not shown) [Compound 3], the “Percent inhibition of hair growth … (%)” value in experiment [1] (1 mM in 80% ethanol) was determined as 64.8%. Besides, in the experiment on elastase (0.1 mM), the “Percent inhibition of elastase activity (%)” value was 90.2%.

On to `CC(C)CC(NP(=O)(O)CCc1ccccc1)C(=O)NCC(=O)O` (stereo not shown) [Compound 4], for which the “Percent inhibition of hair growth … (%)” value in experiment [1] (10 mM in 80% ethanol) is on record as 60.5%. Further, in the experiment with elastase (1 mM), the “Percent inhibition of elastase activity (%)” value was 68.4%.

Consider `O=C(O)CCNC(=O)C(CS)Cc1ccccc1` (stereo not shown) [Compound 7], for which, in experiment [1] (1 mM in 80% ethanol), the “Percent inhibition of hair growth … (%)” value stood at 59.7%. The inhibition at 10 µM at neutral endopeptidase is 97.1%. Also, the “Percent inhibition of elastase activity (%)” value with elastase (0.1 mM) was found to be 85.4%.

In the case of `O=C(O)CNC(=O)C(CS)Cc1ccccc1` (stereo not shown) [Compound 8], the “Percent inhibition of hair growth … (%)” value in experiment [1] (1 mM in 80% ethanol) worked out at 71.6%. For the same molecule, on neutral endopeptidase, the inhibition at 10 µM stood at 96.3%. The “Percent inhibition of elastase activity (%)” value in the experiment with elastase (0.1 mM) was 89.6%.

As a reminder, the inhibition is the share of the control response that was lost under treatment.

(Values after US7041658B2, “Method of inhibiting hair growth” (Kao Corporation, priority 1998, dated 2006).)
